tested on: CD-1 mice; assay: Expression of hEPO induced by LNPs (mRNA encoding hEPO) administered to mice; assay type: in vivo; conditions: Table 4a, serum, 6 h after intravenous injection
Method: In some embodiments, hEPO concentrations were determined using an […] (ELLA) Simple Plex Assay (ProteinSimple) with a Human Erythroprotein cartridge. Standards for this assay are calibrated according to the 2. IRP WHO preparation. Nanoparticle compositions including mRNA are useful in the evaluation of the efficacy and usefulness of various formulations for the delivery of therapeutic and/or prophylactics. Higher levels of protein expression induced by administration of a composition including an mRNA will be indicative of higher mRNA translation and/or nanoparticle composition mRNA delivery efficiencies. As the non-RNA components are not thought to affect translational machineries themselves, a higher level of protein expression is likely indicative of a higher efficiency of delivery of the therapeutic and/or prophylactic by a given nanoparticle composition relative to other nanoparticle compositions or the absence thereof.
To assess potency of expression of lipids of the disclosure, the protein expression (hEPO) following administration of a nanoparticle comprising a lipid of the disclosure (e.g., a loaded LNP) to mice was measured.
Lipid nanoparticles (LNPs) including DSPC as a phospholipid, cholesterol as a structural lipid, PL-II (e.g., PEG-1) as a PEG lipid, a lipid according to Formula (I-1), (I), (I-A), (I-A1), (I-A2), (I-A3), or (I-A4), and an mRNA encoding hEPO were intravenously administered to CD-1 mice. The concentration of hEPO in serum was tested at 6 h after injection.

SMILES | Avg. hEPO Concentration (mIU/mL) ± Avg. SD [mIU/mL]
CCCCCCCC(CCCCCCC)OC(=O)CCCCCCCN(CCCCCCCC(=O)OCCC(CCCC)CCCC)CCCNS(=O)(=O)CC [Compound 19] | 1.36E+07 ± 2.52E+05
CCCCCC(CCCCC)CCOC(=O)CCCCCCCN(CCCCCCCC(=O)OCCC(CCCCC)CCCCC)CCCNc1n[s+]([O-])nc1NC (centres unmarked) [Compound 22] | 7.14E+06 ± 1.53E+05
CCCCCC(CCCCC)CCOC(=O)CCCCCCCN(CCCCCCCC(=O)OCCC(CCCCC)CCCCC)CCCNS(=O)(=O)CCOC [Compound 24] | 8.30E+06 ± 1.36E+05

tested on: not listed separately; assay: Particle size (diameter) and polydispersity index of lipid nanoparticles; assay type: physicochemical; conditions: Table 2a; nanoparticles comprising the lipid
Method: A Zetasizer Nano ZS (Malvern Instruments Ltd, Malvern, Worcestershire, UK) can be used to determine the particle size, the polydispersity index (PDI) and the zeta potential of the nanoparticle compositions in 1×PBS in determining particle size and 15 mM PBS in determining zeta potential.
Lipid nanoparticles (e.g., empty LNPs or loaded LNPs) may be characterized by a variety of methods. For example, microscopy (e.g., transmission electron microscopy or scanning electron microscopy) may be used to examine the morphology and size distribution of a nanoparticle composition. Dynamic light scattering or potentiometry (e.g., potentiometric titrations) may be used to measure zeta potentials. Dynamic light scattering may also be utilized to determine particle sizes. Instruments such as the Zetasizer Nano ZS (Malvern Instruments Ltd, Malvern, Worcestershire, UK) may also be used to measure multiple characteristics of a nanoparticle composition, such as particle size, polydispersity index, and zeta potential.
(§1) Lipid nanoparticles (e.g., empty LNPs or loaded LNPs) including DSPC as a phospholipid, cholesterol as a structural lipid, PL-II (e.g., PEG-1) as a PEG lipid, and a lipid according to Formula (I-1), (I), (I-A), (I-A1), (I-A2), (I-A3), or (I-A4) were prepared. In some embodiments, the lipid nanoparticles further included rhodamine-DOPE as a fluorescent lipid. Tables 2a, 2b, and 3 summarize the characteristics of the formulations.

PDI | SMILES
0.127 | CCCCCCCC(CCCCCCC)OC(=O)CCCCCCCN(CCCCCCCC(=O)OCCC(CCCC)CCCC)CCCNS(=O)(=O)CC [Compound 19]
0.104 | CCCCCC(CCCCC)CCOC(=O)CCCCCCCN(CCCCCCCC(=O)OCCC(CCCCC)CCCCC)CCCNc1n[s+]([O-])nc1NC (centres unmarked) [Compound 22]
0.112 | CCCCCC(CCCCC)CCOC(=O)CCCCCCCN(CCCCCCCC(=O)OCCC(CCCCC)CCCCC)CCCNS(=O)(=O)CCOC [Compound 24]

same assay, conditions: Table 2a; nanoparticles comprising the lipid, DSPC, cholesterol, PEG lipid

Diameter (nm) | SMILES
82.8 | CCCCCCCC(CCCCCCC)OC(=O)CCCCCCCN(CCCCCCCC(=O)OCCC(CCCC)CCCC)CCCNS(=O)(=O)CC [Compound 19]
78.3 | CCCCCC(CCCCC)CCOC(=O)CCCCCCCN(CCCCCCCC(=O)OCCC(CCCCC)CCCCC)CCCNc1n[s+]([O-])nc1NC (centres unmarked) [Compound 22]
87.9 | CCCCCC(CCCCC)CCOC(=O)CCCCCCCN(CCCCCCCC(=O)OCCC(CCCCC)CCCCC)CCCNS(=O)(=O)CCOC [Compound 24]

same assay, conditions: Table 2b; nanoparticles comprising the lipid

Diameter (nm) | PDI | SMILES
86.4 | 0.187 | CCCCCCCC(CCCCCCC)OC(=O)CCCCCCCN(CCCCCCCC(=O)OCCC(CCCC)CCCC)CCCNS(=O)(=O)CC [Compound 19]

same assay, conditions: Table 3; nanoparticles comprising the lipid

Diameter (nm) | PDI | SMILES
84.5 | 0.129 | CCCCCCCC(CCCCCCC)OC(=O)CCCCCCCN(CCCCCCCC(=O)OCCC(CCCC)CCCC)CCCNS(=O)(=O)CC [Compound 19]
83.4 | 0.195 | CCCCCC(CCCCC)CCOC(=O)CCCCCCCN(CCCCCCCC(=O)OCCC(CCCCC)CCCCC)CCCNc1n[s+]([O-])nc1NC (centres unmarked) [Compound 22]
93.8 | 0.17 | CCCCCC(CCCCC)CCOC(=O)CCCCCCCN(CCCCCCCC(=O)OCCC(CCCCC)CCCCC)CCCNS(=O)(=O)CCOC [Compound 24]

tested on: not listed separately; assay: Apparent pKa of lipid nanoparticles; assay type: physicochemical; conditions: Table 2a; nanoparticles comprising the lipid

Apparent pKa | SMILES
6.551 | CCCCCCCC(CCCCCCC)OC(=O)CCCCCCCN(CCCCCCCC(=O)OCCC(CCCC)CCCC)CCCNS(=O)(=O)CC [Compound 19]
6.895 | CCCCCC(CCCCC)CCOC(=O)CCCCCCCN(CCCCCCCC(=O)OCCC(CCCCC)CCCCC)CCCNc1n[s+]([O-])nc1NC (centres unmarked) [Compound 22]
6.725 | CCCCCC(CCCCC)CCOC(=O)CCCCCCCN(CCCCCCCC(=O)OCCC(CCCCC)CCCCC)CCCNS(=O)(=O)CCOC [Compound 24]

same assay, conditions: Table 2b; 95% confidence interval

Apparent pKa 95% CI | SMILES
6.572 to 6.671 | CCCCCCCC(CCCCCCC)OC(=O)CCCCCCCN(CCCCCCCC(=O)OCCC(CCCC)CCCC)CCCNS(=O)(=O)CC [Compound 19]

tested on: not listed separately; assay: Encapsulation efficiency (% EE) of lipid nanoparticles; assay type: physicochemical; conditions: Table 2a; nanoparticles comprising the lipid
Method: For nanoparticle compositions including an RNA, a QUANT-IT™ RIBOGREEN® RNA assay (Invitrogen Corporation Carlsbad, CA) can be used to evaluate the encapsulation of an RNA by the nanoparticle composition. The samples are diluted to a concentration of approximately 5 μg/mL in a TE buffer solution (10 mM Tris-HCl, 1 mM EDTA, pH 7.5). 50 μL of the diluted samples are transferred to a polystyrene 96 well plate and either 50 μL of TE buffer or 50 μL of a 2% Triton X-100 solution is added to the wells. The plate is incubated at a temperature of 37° C. for 15 minutes. The RIBOGREEN® reagent is diluted 1:100 in TE buffer, and 100 μL of this solution is added to each well. The fluorescence intensity can be measured using a fluorescence plate reader (Wallac Victor 1420 Multilablel Counter; Perkin Elmer, Waltham, MA) at an excitation wavelength of, for example, about 480 nm and an emission wavelength of, for example, about 520 nm. The fluorescence values of the reagent blank are subtracted from that of each of the samples and the percentage of free RNA is determined by dividing the fluorescence intensity of the intact sample (without addition of Triton X-100) by the fluorescence value of the disrupted sample (caused by the addition of Triton X-100).
The efficiency of encapsulation of a therapeutic and/or prophylactic describes the amount of therapeutic and/or prophylactic that is encapsulated or otherwise associated with a lipid nanoparticle (e.g., an empty LNP or a loaded LNP) after preparation, relative to the initial amount provided. The encapsulation efficiency is desired to be high (e.g., close to 100%). The encapsulation efficiency may be measured, for example, by comparing the amount of therapeutic and/or prophylactic in a solution containing a loaded LNP before and after breaking up the loaded LNP with one or more organic solvents or detergents. Fluorescence may be used to measure the amount of free therapeutic and/or prophylactic (e.g., RNA) in a solution. For the loaded LNPs formulated with lipids of the disclosure, the encapsulation efficiency of a therapeutic and/or prophylactic is at least 50%, for example 50%, 55%, 60%, 65%, 70%, 75%, 80%, 85%, 90%, 91%, 92%, 93%, 94%, 95%, 96%, 97%, 98%, 99%, or 100%. In some embodiments, the encapsulation efficiency is at least 80%. In some embodiments, the encapsulation efficiency is at least 90%. In some embodiments, the encapsulation efficiency of the therapeutic and/or prophylactic agent is between 80% and 100%.
as §1

% EE [%] | SMILES
77.2 | CCCCCCCC(CCCCCCC)OC(=O)CCCCCCCN(CCCCCCCC(=O)OCCC(CCCC)CCCC)CCCNS(=O)(=O)CC [Compound 19]
95.6 | CCCCCC(CCCCC)CCOC(=O)CCCCCCCN(CCCCCCCC(=O)OCCC(CCCCC)CCCCC)CCCNc1n[s+]([O-])nc1NC (centres unmarked) [Compound 22]
82.9 | CCCCCC(CCCCC)CCOC(=O)CCCCCCCN(CCCCCCCC(=O)OCCC(CCCCC)CCCCC)CCCNS(=O)(=O)CCOC [Compound 24]

same assay, conditions: Table 2b; nanoparticles comprising the lipid

% EE [%] | SMILES
77.0 | CCCCCCCC(CCCCCCC)OC(=O)CCCCCCCN(CCCCCCCC(=O)OCCC(CCCC)CCCC)CCCNS(=O)(=O)CC [Compound 19]

same assay, conditions: Table 3; nanoparticles comprising the lipid

% EE [%] | SMILES
94.5 | CCCCCCCC(CCCCCCC)OC(=O)CCCCCCCN(CCCCCCCC(=O)OCCC(CCCC)CCCC)CCCNS(=O)(=O)CC [Compound 19]
97.2 | CCCCCC(CCCCC)CCOC(=O)CCCCCCCN(CCCCCCCC(=O)OCCC(CCCCC)CCCCC)CCCNc1n[s+]([O-])nc1NC (centres unmarked) [Compound 22]
95.4 | CCCCCC(CCCCC)CCOC(=O)CCCCCCCN(CCCCCCCC(=O)OCCC(CCCCC)CCCCC)CCCNS(=O)(=O)CCOC [Compound 24]

tested on: not listed separately; assay: Lipid nanoparticle surface hydrophobicity by Generalized Polarization by Laurdan (N-GP); assay type: physicochemical; conditions: Table 2a; Laurdan; higher N-GP indicates a less polar surface
From the text: Surface hydrophobicity of nanoparticles of the disclosure can be measured by Generalized Polarization by Laurdan (GPL). In this method, Laurdan, a fluorescent aminonaphthalene ketone lipid, is post-inserted into the nanoparticle surface and the fluorescence spectrum of Laurdan is collected to determine the normalized Generalized Polarization (N-GP). In some embodiments, nanoparticles formulated with lipids of the disclosure have a surface hydrophobicity expressed as N-GP of between about 0.5 and about 1.5. For example, in some embodiments, nanoparticles formulated with lipids of the disclosure have a surface hydrophobicity expressed as N-GP of about 0.5, about 0.6, about 0.7, about 0.8, about 0.9, about 1.0, about 1.1, about 1.2, about 1.3, about 1.4, or about 1.5. In some embodiments, nanoparticles formulated with lipids of the disclosure have a surface hydrophobicity expressed as N-GP of about 1.0 or about 1.1.

Lipid nanoparticle surface hydrophobicity (N-GP*) | SMILES
1.00 | CCCCCCCC(CCCCCCC)OC(=O)CCCCCCCN(CCCCCCCC(=O)OCCC(CCCC)CCCC)CCCNS(=O)(=O)CC [Compound 19]
1.03 | CCCCCC(CCCCC)CCOC(=O)CCCCCCCN(CCCCCCCC(=O)OCCC(CCCCC)CCCCC)CCCNc1n[s+]([O-])nc1NC (centres unmarked) [Compound 22]
1.05 | CCCCCC(CCCCC)CCOC(=O)CCCCCCCN(CCCCCCCC(=O)OCCC(CCCCC)CCCCC)CCCNS(=O)(=O)CCOC [Compound 24]

same assay, conditions: Table 2b; nanoparticles comprising the lipid

LNP surface hydrophobicity (N-GP*) | SMILES
1.00 | CCCCCCCC(CCCCCCC)OC(=O)CCCCCCCN(CCCCCCCC(=O)OCCC(CCCC)CCCC)CCCNS(=O)(=O)CC [Compound 19]

Source: patent US20240226026A1, “BRANCHED TAIL LIPID COMPOUNDS AND COMPOSITIONS FOR INTRACELLULAR DELIVERY OF THERAPEUTIC AGENTS” (ModernaTX, Inc., priority 2021, published 2024)
